Results reported in patent US4181657A, “2-Aminooctahydroindolo[2,3-a]quinolizines useful in treating cardiovascular disorders” (Miles Laboratories, Inc., priority 1978, dated 1980).
Structures can show the parent of a compound that is named as a salt.

Assays:
Assay type in all cases: in vivo
[1] = test system: dog heart in situ; test: Antianginal activity: aortic-coronary sinus difference in oxygen (myocardial oxygen consumption) in anesthetized dogs; details: 1 mg/kg i.v.; for antianginal activity (conclusion in words): based upon comparison with nitroglycerin, named compounds 'particularly'
Description: Angina pectoris is a clinical condition of hypoxia that results from an imbalance in myocardial oxygen supply and demand. A drug reducing oxygen demand is useful in the treatment of angina pectoris, as has been the case with nitroglycerin and the beta-adrenergic blocking agents like propranolol (J. R. Paratt, Advan. Drug Res. 9:103-134, 1974). Accordingly,the antianginal activity of 2-substituted indoloquinolizines was evaluated by assessing their capacity to reduce oxygen consumption by the dog heart in situ. This method allows measurement of the difference in oxygen content of the arterial and venous blood.
Mongrel dogs were anesthetized with pentobarbital and cannulas inserted in the trachea and in a femoral vein for artificial respiration with room air and for injection of test compounds, respectively. Heparin was administered intravenously to prevent blood clotting. The chest was opened at the sternal midline and an additional cannula introduced in the coronary sinus. Samples of blood were obtained from the coronary sinus cannula and from the thoracic aorta by direct puncture of the vessel. Partial pressure of oxygen in the samples was determined with a blood gas analyzer. Test compounds were injected intravenously at a dose of 1 mg/kg; oxygen measurements were made before administration and at 1, 5, 10, 20, 30, 40, 50 and 60 min after administration. One animal was used per test compound. As the standard of comparison, nitroglycerin was administered to a test animal and measurements were made in a similar manner.
Differences between partial pressure values in arterial and venous blood samples were calculated for each measurement. Since coronary sinus blood is representative of the venous effluent from the heart, these differences reflect the consumption of oxygen by the myocardium. Thus, the decrease in arteriovenous oxygen difference produced by the compounds by this invention indicates a reduction in myocardial oxygen consumption.

[2] = test system: Systolic Blood Pressure; test: Antihypertensive activity: indirect systolic blood pressure in renal hypertensive rats; details: rat, 31 mg/kg p.o., * in table = statistically significant change from control
Description: Rats were made hypertensive by applying a figure of eight ligature to one kidney and removing the contralateral kidney two weeks later. At least four weeks after the second operation the animals were subjected to indirect systolic blood pressure measurements with an occluding cuff and pulse sensor system applied to the tail. Pressure measurements were made before and 1,2,4,6 and 8 hours after oral administration of the test compounds at a dose of 31 mg/kg. Each compound was tested in 5 or 10 rats. Statistical significance of differences between control and post treatment values was determined by Wilcoxon's signed rank test (F. Wilcoxon and R. A. Wilcox, Some Rapid Approximate Statistical Procedures, Lederle Laboratories, Pearl River, 1964).

[3] = test system: ventricular arrhythmia produced by chloroform; test: Antiarrhythmic activity: protection from chloroform-induced ventricular arrhythmia in mice (Lawson model); details: mouse; for Antiarrhythmic activity, ED50 symbol (failed screening dose) / mice protected of 5: 31 mg/kg i.p.; for Antiarrhythmic activity, ED50 symbol (failed screening dose): groups of 5 mice; for ED50: ip, 10 min, i.p., 10 min before chloroform, 95% confidence limits in parentheses, read-out: ED50 (95% C.L.)
Description: The antiarrhythmic activity of the compounds of this invention was determined in the experimental model described by J. W. Lawson (J. Pharmacol. Exper. Therap. 160:22-31, 1968). Test compounds were administered to groups of 5 mice at an intraperitoneal dose of 31 mg/kg. Ten minutes after injection each mouse was placed in a covered 300 ml glass beaker which contained cotton saturated with chloroform. The animal was observed closely and removed from the beaker immediately after respiratory arrest. The heart was quickly exposed by making an incision through the abdomen, diaphragm, thorax and pericardium for visual inspection of ventricular rate and rhythm. Ventricular contractions were counted for 30 seconds and animals with a rate not exceeding 100 beats per 30 seconds were considered protected from the ventricular arrhythmia produced by chloroform. Compounds protecting at least 3 of the 5 mice were subsequently tested at various doses and the results obtained were used to calculate the mean effective doses (ED50) and 95% confidence limits after the method of Litchfield and Wilcoxon (J. Pharmacol. Exper. Therap. 96:99-113, 1949). Table A presents the results obtained in the antiarrhythmic study.

Compound	Arterio-Venous Difference in Oxygen Partial Pressure at 1 min [1]	Arterio-Venous Difference in Oxygen Partial Pressure at 5 min [1]	Arterio-Venous Difference in Oxygen Partial Pressure at 10 min [1]	Arterio-Venous Difference in Oxygen Partial Pressure at 20 min [1]	Arterio-Venous Difference in Oxygen Partial Pressure at 30 min [1]	Arterio-Venous Difference in Oxygen Partial Pressure at 40 min [1]	Arterio-Venous Difference in Oxygen Partial Pressure at 50 min [1]	Arterio-Venous Difference in Oxygen Partial Pressure at 60 min [1]	Change in Systolic Blood Pressure at 1 hr [2]	Change in Systolic Blood Pressure at 2 hr [2]	Change in Systolic Blood Pressure at 4 hr [2]	Change in Systolic Blood Pressure at 6 hr [2]	Change in Systolic Blood Pressure at 8 hr [2]	Antiarrhythmic activity, ED50 symbol (failed screening dose) [3]	antianginal activity (conclusion in words) [1]	ED50 [3]	mice protected of 5 [3]
Cc1cccc(NC2CCN3CCc4c(n(Cc5ccccc5)c5ccccc45)C3C2)c1.Cl.Cl (centres unmarked) [TR3008, 12-benzyl-2-(3-methylanilino)-1,2,3,4,6,7,12,12b-octahydroindolo[2,3-a]quinolizine dihydrochloride]	20 mmHg	23 mmHg	22 mmHg	23 mmHg	25 mmHg	25 mmHg	24 mmHg	25 mmHg	-27 mmHg	-24 mmHg	-17 mmHg	-17 mmHg	-20 mmHg	* (Did not protect 3 of 5 mice and thus was not tested further.)			
O=[N+]([O-])OCC(CO[N+](=O)[O-])O[N+](=O)[O-] [Nitroglycerin, nitroglycerin, reference compound]	13 mmHg	21 mmHg	20 mmHg	20 mmHg	21 mmHg	21 mmHg	18 mmHg	20 mmHg									
Brc1ccc(NC2CCN3CCc4c(n(Cc5ccccc5)c5ccccc45)C3C2)cc1.Cl.Cl (centres unmarked) [TR3631, 12-benzyl-2-(4-bromoanilino)-1,2,3,4,6,7,12,12b-octahydroindolo[2,3-a]quinolizine dihydrochloride]	26 mmHg	33 mmHg	32 mmHg	30 mmHg	30 mmHg	32 mmHg	31 mmHg	31 mmHg	+10 mmHg	-5 mmHg	+12 mmHg	+3 mmHg	0 mmHg		antianginal activity is seen	37 mg/kg	at least 3 of 5 mice
FC(F)(F)c1cccc(NC2CCN3CCc4c(n(Cc5ccccc5)c5ccccc45)C3C2)c1 (centres unmarked) [TR3633, 12-benzyl-1,2,3,4,6,7,12,12b-octahydroindolo-2-(3-trifluoromethylanilino)[2,3-a]quinolizine dihydrochloride]	31 mmHg	35 mmHg	39 mmHg	39 mmHg	36 mmHg	36 mmHg	36 mmHg	38 mmHg	-10 mmHg	+2 mmHg	+8 mmHg	+4 mmHg	+13 mmHg	* (Did not protect 3 of 5 mice and thus was not tested further.)	antianginal activity is seen		
CC(C)NC1CCN2CCc3c(n(Cc4ccccc4)c4ccccc34)C2C1.Cl.Cl.O (centres unmarked) [TR3687, 12-benzyl-2-isopropylamino-1,2,3,4,6,7,12,12b-octahydroindolo[2,3-a]quinolizine dihydrochloride monohydrate]	15 mmHg	22 mmHg	23 mmHg	20 mmHg	20 mmHg	20 mmHg	23 mmHg	23 mmHg	-2 mmHg	+16 mmHg	+18 mmHg	+18 mmHg	+9 mmHg		antianginal activity is seen	19 mg/kg	at least 3 of 5 mice
c1ccc(Cn2c3c(c4ccccc42)CCN2CCC(Nc4ccccc4)CC32)cc1 (centres unmarked) [TR2981, 2-anilino-12-benzyl-1,2,3,4,6,7,12,12b-octahydroindolo[2,3-a]quinolizine dihydrochloride]	17 mmHg	20 mmHg	21 mmHg	22 mmHg	23 mmHg	24 mmHg	24 mmHg	24 mmHg	-2 mmHg	+5 mmHg	-5 mmHg	+7 mmHg	+16 mmHg		antianginal activity is seen	31 mg/kg	at least 3 of 5 mice
O=[N+]([O-])c1cccc(NC2CCN3CCc4c(n(Cc5ccccc5)c5ccccc45)C3C2)c1 (centres unmarked) [TR2998, 12-benzyl-2-(3-nitroanilino)-1,2,3,4,6,7,12,12b-octahydroindolo[2,3-a]quinolizine]	12 mmHg	16 mmHg	18 mmHg	17 mmHg	18 mmHg	17 mmHg	19 mmHg	20 mmHg	0 mmHg	-2 mmHg	-4 mmHg	0 mmHg	-4 mmHg		antianginal activity is seen	12 mg/kg	at least 3 of 5 mice
